{
  "source": "patent US20100069389A1",
  "about": "“NOVEL FORMS OF REBOXETINE” (Bionevia Pharmaceuticals, Inc., priority 2008, published 2010)",
  "origin": "cited, not measured here",
  "conditions": "humans; Denolle et al., Clin Pharmacol Ther. 1999",
  "data": [
    {"smiles": "CCOc1ccccc1OC(c1ccccc1)C1CNCCO1", "note": "(racemic) [Racemic reboxetine, (2RS)-2-[(RS)-(2-ethoxyphenoxy)-phenylmethyl]morpholine]", "values": [
      {"measurement": "Blood pressure and heart rate increases compared with (R,R)-reboxetine", "result": "greater blood pressure increases and heart rate increases in humans than does administration of (R,R)-reboxetine"}
    ]}
  ]
}
